# Source: patent US6955648B2, “Precision brain blood flow assessment remotely in real time using nanotechnology ultrasound” (New Health Sciences, Inc., priority 2000, dated 2005)
# Test system: cerebral vessels
# Conditions: person after first stroke
# Method: A person with a history of hypertension experiences a first stroke in the left middle cerebral artery resulting in deficits in the right hand, leg, and some deficits in motor speech. These are the symptoms upon presentation in the neurological clinic. Transcranial Doppler analysis of all cerebral vessels is performed in addition to analyzing the common carotid artery and the internal carotid artery.
# The physician considers prescription of Plavix together with a calcium channel blocker. Transcranial Doppler analysis was performed at monthly intervals. […] The physician subsequently administers a higher dose. Again, transcranial Doppler analysis is performed on all cerebral vessels.
# [1] = higher dose, transcranial Doppler on all cerebral vessels
structure (smiles),measurement,setting,value
COC(=O)[C@H](c1ccccc1Cl)N1CCc2sccc2C1 [Plavix],effect on the cerebral vessels (changes in the individual cerebral vessels),"Plavix +/− calcium channel blocker, initial dose, transcranial Doppler at monthly intervals",no effect
same,auto-regulation curve,[1],left-shifts toward normal
same,pulsatility index,[1],decreases
